Measurements taken from patent US20080050319A1, “Benzylidene-Alpha-Dicarbonyl Compounds as Novel Uv Absorbers” (SYMRISE GMBH & CO. KG, priority 2004, published 2008).
Each block holds one molecule with its values, some of them ahead of it.

Key:
Type in all cases: physicochemical
[1] = UV absorption properties (extinction); design: unit not given here
Source text: EXAMPLES FOR THE PREPARATION AND THE ABSORPTION PROPERTIES

[2] = Solubility in cosmetic oils; conditions: per cent by weight
Source text: Examples of Solubility (In Per Cent By Weight)
(data in per cent by weight)

[3] = Photostability test with Suntester, HPLC analysis of UV filter mixtures
Method: Photostability tests were carried out with a Suntester from Heräus. The irradiation intensity in these was 80 W/m^2, based on the UV range of 290-400 nm. The irradiation time was 4 h in total, the photodegradation of the UV filters being measured by HPLC analyses after an irradiation time of 2 and 4 h. The irradiations of the UV filter mixtures were carried out in an isopropyl myristate solution. The percentage values relate to the value measured without irradiation (decrease in the concentration).

[4] = 2 h, Experiment 1: 3% OMC + 1% DMDBM + 2% A1 in isopropyl myristate
[5] = 2 h, Experiment 2: 3% OMC + 1% DMDBM + 2% A2 in isopropyl myristate
[6] = 2 h, Experiment 3: 3% OMC + 1% DMDBM + 2% A3 in isopropyl myristate
[7] = 2 h, Experiment 4: 3% OMC + 1% DMDBM + 2% B1 in isopropyl myristate
[8] = 2 h, Experiment 5: 3% OMC + 1% DMDBM + 2% B2 in isopropyl myristate
[9] = 2 h, Experiment 6: 3% OMC + 1% DMDBM + 2% B3 in isopropyl myristate
[10] = 2 h irradiation, 80 W/m2, reference mixture 3% OMC + 1% DMDBM in isopropyl myristate
[11] = 4 h, Experiment 1: 3% OMC + 1% DMDBM + 2% A1 in isopropyl myristate
[12] = 4 h, Experiment 2: 3% OMC + 1% DMDBM + 2% A2 in isopropyl myristate
[13] = 4 h, Experiment 3: 3% OMC + 1% DMDBM + 2% A3 in isopropyl myristate
[14] = 4 h, Experiment 4: 3% OMC + 1% DMDBM + 2% B1 in isopropyl myristate
[15] = 4 h, Experiment 5: 3% OMC + 1% DMDBM + 2% B2 in isopropyl myristate
[16] = 4 h, Experiment 6: 3% OMC + 1% DMDBM + 2% B3 in isopropyl myristate
[17] = 4 h irradiation, 80 W/m2, reference mixture 3% OMC + 1% DMDBM in isopropyl myristate

Extinction ([1]; at 316 nm): 630
Solubility in Isopropyl myristate [2]: >20%
Solubility in Miglyol -812 [2]: >20%
Solubility in Witconol-TN [2]: >20%
Structure (SMILES): COc1ccc(/C=C(/C(=O)OCCC(C)C)C(=O)c2ccccc2)cc1 [Example 5]

photodegradation (decrease in the concentration) [3, 4]: 24%
photodegradation (decrease in the concentration) [3, 5]: 20%
photodegradation (decrease in the concentration) [3, 6]: 20%
photodegradation (decrease in the concentration) [3, 7]: 27%
photodegradation (decrease in the concentration) [3, 8]: 27%
photodegradation (decrease in the concentration) [3, 9]: 27%
photodegradation (decrease in the concentration) [3, 10]: 67%
photodegradation (decrease in the concentration) [3, 11]: 38%
photodegradation (decrease in the concentration) [3, 12]: 28%
photodegradation (decrease in the concentration) [3, 13]: 28%
photodegradation (decrease in the concentration) [3, 14]: 48%
photodegradation (decrease in the concentration) [3, 15]: 60%
photodegradation (decrease in the concentration) [3, 16]: 52%
photodegradation (decrease in the concentration) [3, 17]: 87%
Structure (SMILES): COc1ccc(C(=O)CC(=O)c2ccc(C(C)(C)C)cc2)cc1 [DMDBM, 4-dimethylethyl-4′-methoxydibenzoylmethane]

Extinction ([1]; at 316 nm): 660
Structure (SMILES): CCOC(=O)/C(=C/c1ccc(OC)cc1)C(=O)c1ccc(C)cc1 [Example 9]

Extinction ([1]; at 316 nm): 640
Solubility in Isopropyl myristate [2]: >20%
Solubility in Miglyol -812 [2]: >20%
Solubility in Witconol-TN [2]: >20%
Structure (SMILES): COc1ccc(/C=C(/C(=O)OCC(C)C)C(=O)c2ccccc2)cc1 [Example 3]

photodegradation (decrease in the concentration) [3, 4]: 0%
photodegradation (decrease in the concentration) [3, 11]: 0%
photostability (in words) ([3]; in mixture with OMC and DMDBM, compared with the comparison measurement): outstanding photostability
Extinction ([1]; at 316 nm): 660
Solubility in Isopropyl myristate [2]: >20%
Solubility in Miglyol -812 [2]: >20%
Solubility in Witconol-TN [2]: >20%
Structure (SMILES): CCCCOC(=O)/C(=C/c1ccc(OC)cc1)C(=O)c1ccccc1 [Example 4]

photodegradation (decrease in the concentration) [3, 5]: 3%
photodegradation (decrease in the concentration) [3, 12]: 3%
Solubility in Isopropyl myristate [2]: <10%
Solubility in Miglyol -812 [2]: <10%
Solubility in Witconol-TN [2]: <10%
Structure (SMILES): COc1ccc(/C=C(/C(C)=O)C(=O)c2ccccc2)cc1 [Example A2]

photodegradation (decrease in the concentration) [3, 6]: 0%
photodegradation (decrease in the concentration) [3, 13]: 0%
Structure (SMILES): CCOC(=O)/C(=C/c1ccc(OC)cc1)C(=O)c1ccccc1 [Example A2]

Extinction ([1]; at 323 nm, pure Z isomer): 816
Structure (SMILES): COc1ccc(/C=C(/C(C)=O)C(=O)c2ccccc2)cc1 [Example 8]

photodegradation (decrease in the concentration) [3, 9]: 0%
photodegradation (decrease in the concentration) [3, 16]: 8%
Structure (SMILES): COc1ccc(C=C(C(C)=O)C(C)=O)cc1 [Example B3]

Extinction ([1]; at 316 nm): 640
Solubility in Isopropyl myristate [2]: >10%
Solubility in Miglyol -812 [2]: >10%
Solubility in Witconol-TN [2]: >10%
Structure (SMILES): COc1ccc(/C=C(/C(=O)OC(C)C)C(=O)c2ccccc2)cc1 [Example 1]

photodegradation (decrease in the concentration) [3, 4]: 12%
photodegradation (decrease in the concentration) [3, 5]: 12%
photodegradation (decrease in the concentration) [3, 6]: 11%
photodegradation (decrease in the concentration) [3, 7]: 11%
photodegradation (decrease in the concentration) [3, 8]: 15%
photodegradation (decrease in the concentration) [3, 9]: 13%
photodegradation (decrease in the concentration) [3, 10]: 58%
photodegradation (decrease in the concentration) [3, 11]: 17%
photodegradation (decrease in the concentration) [3, 12]: 17%
photodegradation (decrease in the concentration) [3, 13]: 17%
photodegradation (decrease in the concentration) [3, 14]: 18%
photodegradation (decrease in the concentration) [3, 15]: 30%
photodegradation (decrease in the concentration) [3, 16]: 25%
photodegradation (decrease in the concentration) [3, 17]: 76%
Structure (SMILES): CCCCC(CC)COC(=O)C=Cc1ccc(OC)cc1 (stereo not drawn) [OMC, octyl methoxycinnamate]

photodegradation (decrease in the concentration) [3, 8]: 2%
photodegradation (decrease in the concentration) [3, 15]: 7%
Structure (SMILES): CCOC(=O)C(=Cc1ccc(OC)cc1)C(=O)OCC [Example B2]

Extinction ([1]; at 316 nm): 700
Structure (SMILES): CCOC(=O)/C(=C/c1ccc(OC)cc1)C(=O)C1CCCCC1 [Example 6]

Extinction ([1]; at 292 nm): 690
Structure (SMILES): CCOC(=O)/C(=C/c1ccc(C)cc1)C(=O)c1ccccc1 [Example 7]

Solubility in Isopropyl myristate [2]: >20%
Solubility in Miglyol -812 [2]: >20%
Solubility in Witconol-TN [2]: >20%
Structure (SMILES): CCOC(=O)/C(=C/c1ccc(OC)cc1)C(=O)c1ccccc1 [Example A3]

Extinction ([1]; at 316 nm): 660
Solubility in Isopropyl myristate [2]: >10%
Solubility in Miglyol -812 [2]: >10%
Solubility in Witconol-TN [2]: >10%
Structure (SMILES): CCCOC(=O)/C(=C/c1ccc(OC)cc1)C(=O)c1ccccc1 [Example 2]
